{"source": "patent US5663186A", "about": "“Treatment of atherosclerosis with angiotensin II receptor blocking imidazoles” (Merck & Co., Inc., priority 1995, dated 1997)", "origin": "cited, not measured here", "system": "AT1 receptor subtype", "details": "cited from earlier work"}
{"smiles": "CCCCc1nc(Cl)c(CO)n1Cc1ccc(-c2ccccc2-c2nnn[nH]2)cc1.[K]", "note": "[Losartan, 2-n-butyl-4-chloro-1-[(2'-(tetrazol-5-yl)-1,1'-biphenyl-4-yl)-methyl]-1H-imidazole-5-methanol potassium salt]", "values": [{"measurement": "AII antagonism, oral activity", "value": "orally active A II antagonists"}]}
